Test results as given in paper PMC10743929, “Amphiphilic Sialic Acid Derivatives as Potential Dual-Specific Inhibitors of Influenza Hemagglutinin and Neuraminidase” (International Journal of Molecular Sciences, 2023).
Where two headings read alike, the source gives them in different places.

What was measured:
[1] = system: IBV; experiment: CPE reduction assay, influenza B in MDCK cells; assay type: cell-based, influenza B virus (B/Ned/537/05); details: Influenza B virus, 72 h
Description: (§1) The process of CPE reduction assay for the influenza virus was described previously. The virus strains were A/Virginia/ATCC3/2009, A/PR/8 (A/H1N1), A/Victoria/361/11, A/HK/7/87 (A/H3N2), and B/Ned/537/05 (IBV). On day 0, Madin-Darby canine kidney (MDCK) cells in 96-well plates were infected with influenza virus at a multiplicity of infection (MOI) of 0.0004 plaque forming units (PFU) per cell, and that was incubated at 35 °C for 3 days. After the third day, virus-induced CPE and compound cytotoxicity were scored by microscopy, and the data were confirmed by formazan-based MTS cell viability assay (CellTiter 96® AQueous One Solution Cell Proliferation Assay from Promega, Madison, WI, USA). […] Compound cytotoxicity was expressed as the concentration of the compound causing minimal changes in cell morphology (MCC) and 50% cytotoxic concentration (CC50) based on the MTS assay.

[2] = system: Madin-Darby canine kidney (MDCK) cells; experiment: Compound cytotoxicity in MDCK cells (microscopy, MTS); details: microscopically visible alterations in cell morphology
[3] = in vitro; details: dog
[4] = system: IAV (A/H1N1); experiment: CPE reduction assay, influenza A/H1N1 in MDCK cells; assay type: cell-based, influenza A virus A/H1N1 (A/Virginia/ATCC3/2009 or A/PR/8); details: Influenza A virus, H1N1, 72 h
Description: as §1

[5] = system: IAV (A/H3N2); experiment: CPE reduction assay, influenza A/H3N2 in MDCK cells; assay type: cell-based, influenza A virus A/H3N2 (A/Victoria/361/11 or A/HK/7/87); details: Influenza A virus, H3N2, 72 h
Description: as §1

For `CC(=O)N[C@H]1[C@H]([C@H](O)[C@H](O)CO)OC(C(=O)O)=C[C@@H]1N=C(N)N` [Zanamivir, reference compound], the EC50 ([1]; MTS cell viability assay, day 3, read-out: Antiviral EC50, IBV, MTS) was 4.5 µM, the EC50 ([1]; microscopic scoring of cytopathic effect, day 3, read-out: Antiviral EC50, IBV, CPE) was 2.1 µM and the “Cytotoxicity MCC (minimum cytotoxic concentration)” value [2] was >100 µM. The CC50 [3] was > 100 µM, the EC50 ([4]; MTS cell viability assay, day 3, read-out: Antiviral EC50, IAV (A/H1N1), MTS) was 8.5 ± 3.4 µM and the EC50 ([4]; microscopic scoring of cytopathic effect, day 3, read-out: Antiviral EC50, IAV (A/H1N1), CPE) was 10 ± 3 µM. It also gave an EC50 ([5]; MTS cell viability assay, day 3, read-out: Antiviral EC50, IAV (A/H3N2), MTS) of 1 µM and an EC50 ([5]; microscopic scoring of cytopathic effect, day 3, read-out: Antiviral EC50, IAV (A/H3N2), CPE) of 1.6 µM.
